According to patent US10738101B2, “Method for selecting odor-controlling substance” (Kao Corporation, priority 2015, dated 2020):

What was measured:
OR5AN1 = target: T1, OR5AN1 (Homo sapiens, UniProt Q8NGI8); test: Luciferase reporter gene assay, OR5AN1-expressing HEK293 cells; type: cell-based
T1 construct: expressed in transfected cells; host or cells: HEK293
T1 sequence (Q8NGI8 1-311): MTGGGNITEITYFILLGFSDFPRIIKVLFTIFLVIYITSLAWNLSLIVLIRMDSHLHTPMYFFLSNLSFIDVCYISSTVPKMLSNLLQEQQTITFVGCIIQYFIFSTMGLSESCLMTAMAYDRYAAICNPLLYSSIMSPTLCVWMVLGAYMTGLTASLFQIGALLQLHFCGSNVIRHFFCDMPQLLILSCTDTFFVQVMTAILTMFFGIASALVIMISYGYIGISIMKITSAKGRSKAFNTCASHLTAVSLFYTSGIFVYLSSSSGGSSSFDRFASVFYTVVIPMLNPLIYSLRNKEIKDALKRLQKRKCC
From the text: (§1) On the basis of sequence information registered in GenBank, genes respectively encoding 370 human olfactory receptors shown in Tables 1-1 and 1-2 and genes respectively encoding the human olfactory receptors OR5AN1, OR10G4 and OR9Q2 (respectively set forth in SEQ ID NOS: 1, 3 and 5) were cloned. Each of the genes was cloned by the PCR using human genomic DNA person (G1521: Promega) as a template. Each gene amplified by the PCR was incorporated into a pENTR vector (Invitrogen) in accordance with the instruction, and was recombined to NotI and AscI sites produced downstream from a Flag-Rho tag sequence on a pME18S vector by using NotI and AscI sites present on the pENTR vector.
(§2) In 1) of Example 1, HEK293 cells on which the 370 human olfactory receptors were respectively expressed were produced. A reaction solution having a composition shown in Table 2 was prepared and allowed to stand still in a clean bench for 15 minutes, and the resultant was added by 4.4 μL per well in a 384-well plate (BioCoat). Subsequently, the HEK293 cells (20×10^4 cells/cm^2) were seeded by 40 μL per well, and the resultant was cultured for 24 hours in an incubator kept at 37° C. and 5% CO2.
(§3) In 2) of Example 1 and Examples 2 and 3, HEK293 cells in which the human olfactory receptor OR5AN1, OR10G4, OR9Q2 or OR1A1 was expressed were produced. A reaction solution having a composition shown in Table 3 was prepared and allowed to stand still in a clean bench for 15 minutes, and the resultant was added by 10 μL per well in a 96-well plate (BioCoat). Subsequently, the HEK293 cells (3×10^5 cells/cm^2) were seeded by 90 μL per well, and the resultant was cultured for 24 hours in an incubator kept at 37° C. and 5% CO2. Cells obtained under conditions for not expressing the olfactory receptor (Mock) were also prepared to be used as a control, and were used similarly in an experiment.
(§4) The olfactory receptor expressed on the HEK293 cells increases the intracellular cAMP amount by activating adenylate cyclase in conjugation with intracellular Gαs. In the measurement of odor response in this study, luciferase reporter gene assay for monitoring the increase of the intracellular cAMP amount as a luminescence value derived from a firefly luciferase gene (fluc2P-CRE-hygro) was employed. Besides, a fused Renilla luciferase (hRluc-CMV) gene was simultaneously transferred downstream of the CMV promoter, so as to be used as an internal standard for correcting the gene transfer efficiency or an error in the number of cells. For measuring the activity of the luciferase, Dual-Glo(™) Luciferase Assay System (Promega) was used, and the measurement was performed in accordance with the operation instruction of the product. Under each of various stimulation conditions, a value fLuc/hRluc obtained by dividing a firefly luciferase-derived luminescence value by a Renilla luciferase-derived luminescence value was calculated. A value obtained by dividing a value fLuc/hRluc induced by stimulation with an odorous substance by a value fLuc/hRluc of a cell not stimulated with the odorous substance was obtained as fold increase, which was used as an index of the response intensity. A dose-response curve was analyzed using Graph Pad Prism.
The medium was removed from each of the cultures of the olfactory receptor expressing cells produced according to Reference Example 1, and an odorous substance (muscone, guaiacol or p-cresol) was added thereto. A DMEM medium (Nacalai) containing muscone or guaiacol was added to a 384-well plate containing the culture by 30 μL per well (to a final concentration of muscone of 100 μM and of guaiacol of 1 mM). Alternatively, a CD293 medium (Invitrogen) containing p-cresol was added to a 96-well plate containing the culture by 75 μL per well (to a final concentration of 1 mM). […]

OR10G4 = target: T2, OR10G4 (Homo sapiens, UniProt Q8NGN3); test: Luciferase reporter gene assay, OR10G4-expressing HEK293 cells; type: cell-based; settings: FIG. 5A, 5C
T2 construct: expressed in transfected cells; host or cells: HEK293
T2 sequence (Q8NGN3 1-311): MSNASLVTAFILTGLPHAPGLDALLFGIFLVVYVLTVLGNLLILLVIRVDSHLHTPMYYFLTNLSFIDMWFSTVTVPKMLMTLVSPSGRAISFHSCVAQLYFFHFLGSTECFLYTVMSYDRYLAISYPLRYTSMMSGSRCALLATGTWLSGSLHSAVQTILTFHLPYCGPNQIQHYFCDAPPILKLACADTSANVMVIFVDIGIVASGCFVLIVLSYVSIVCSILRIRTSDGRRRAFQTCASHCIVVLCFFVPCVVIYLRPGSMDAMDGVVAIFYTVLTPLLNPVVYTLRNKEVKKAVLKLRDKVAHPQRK
From the text: as §1, §2, §3
as §4, with “For measuring the activity of the luciferase, Dual-Glo(™) Luciferase Assay System (Promega) was used, and the measurement was performed in accordance with the operation instruction of the product.” left out, “A value obtained by dividing a value fLuc/hRluc induced by stimulation with an odorous substance by a value fLuc/hRluc of a cell not stimulated with the odorous substance was obtained as fold increase, which was used as an index of the response intensity.” left out, “Prism. […]” for “Prism.”

odor of p-cresyl acetate = test: Sensory test of cross-adaptation, target odor p-cresyl acetate; type: in vivo, human; settings: panelists

SMILES: C[C@@H]1CCCCCCCCCCCCC(=O)C1 [muscone, (R)-3-methyl-1-cyclopentadecanone]
- activation of OR5AN1 response (fold increase) (OR5AN1; 0.3 μM to 100 μM, vs Mock cells, FIG. 3): activating the response
- responsiveness of OR5AN1 among 370 olfactory receptors (response intensity, fold increase) (OR5AN1; screen of 370 human olfactory receptors, muscone 100 μM, FIG. 1): highest responsiveness
- responsiveness of OR10G4 (fold increase) (OR10G4): do not have responsiveness
- cross-adaptation of p-cresyl acetate odor induced by test substance (odor of p-cresyl acetate): did not induce the cross-adaptation
